Source: US20140357512A1, “HISTONE DEACETYLASE (HDAC) BIOMARKERS IN MULTIPLE MYELOMA” (priority 2013, published 2014)

Test system: human myeloma cell line MM.1S
Experiment: SILAC acetylated-lysine peptide profiling, HDAC inhibitor vs DMSO (light/heavy ratio)
Assay type: cell-based
Text: An embodiment of the invention comprises utilizing the SILAC method in order to quantitate changes in protein expression between two or more populations of cells. The SILAC method is a technique based on mass spectrometry that detects differences in protein abundance among samples using non-radioactive isotopic labeling. The SILAC method is known in the art, and described in detail in Ong et al., “Stable Isotope Labeling by Amino Acids in Cell Culture, SILAC, as a Simple and Accurate Approach to Expression Proteomics”, Molecular & Cellular Proteomics, vol. 1, pp. 376-386 (2002), which is incorporated herein by reference in its entirety.
Briefly, the SILAC method involves growing two populations of cells in cell culture. The first population of cells is grown in growth media containing normal amino acids (“normal media”). The second population of cells is grown in media lacking a standard essential amino acid (such as lysine), but is then supplemented with a non-radioactive, isotopically labeled form of that essential amino acid (such as lysine labeled with ^13C atoms, rather than normal ^12C atoms), which is called “heavy media”. When the two populations of cells are each growing in the medium, they incorporate the amino acids into all of their proteins. The growth of cells maintained in the heavy media is no different from that in normal media. All peptides containing the heavy amino acids are heavier than their normal counterparts. The cells from each of the two populations of cells are lysed. The lysates from each of the two cell populations are then combined. The combined cell lysates are then analyzed by mass spectrometry. Pairs of chemically identical peptides of different stable isotope composition can be differentiated in a mass spectrometer due to their difference in mass. The ratio of peak intensities in the mass spectrum for such peptide pairs reflects the abundance ratio for the two proteins.
This example describes SILAC studies that were performed to compare the effects of three different HDAC inhibitors (Compound A, Compound B, and tubastatin A) to a control on a human multiple myeloma cell line. The HDAC inhibitors were also compared amongst themselves to determine differences in their effects.
A human myeloma cell line MM.1S was grown using either ^12C (light) or ^13C (heavy) lysine containing culture medium. The “heavy” cells were treated with DMSO as the control, and the “light” cells were treated with a single HDAC inhibitor at 37° C. for 6 hours. The heavy and light cells were lysed, and the lysates were mixed in 1:1 ratio and digested with the protease trypsin. The acetylated lysine containing peptides (due to the action of the HDAC inhibitor) in the digested peptide pool were captured by a non-specific anti-acetylated lysine antibody cocktail (the antibodies identify both light and heavy acetylated peptides), and subjected to mass spectrometry analysis in order to identify thousands of individual peptides.
Thousands of peptides were identified in pairs (^12C and ^13C) due to their known mass differences. The amino acid sequence and quantitative ratio (Light/Heavy) of a given peptide in two differentially treated cell lysates were then determined and annotated with their possible protein (gene) sources.
As stated above, three HDAC inhibitors (Compound A, Compound B, and Tubastatin A) were used. Thus, the SILAC method was performed three times, with a different HDAC inhibitor compared to a control each time. Accordingly, there are three pairs of quantitative data in the table below, i.e., Compound A:DMSO, Compound B:DMSO, and Tubastatin A:DMSO. A cut-off of 1.30 fold of change (increase or decrease) was then used to determine “changed” or “+” in the table, and any peptides with a fold of change less than 1.3 fold were determined to be “unchanged” or “0” in the table. Those peptides that were not identified were marked as “NA” in the table. […]

`O=C(CCCCCCNC(=O)c1cnc(N(c2ccccc2)c2ccccc2)nc1)NO` [Compound A, 2-(diphenylamino)-N-(7-(hydroxyamino)-7-oxoheptyl)pyrimidine-5-carboxamide] was tested, and the “L/H ratio of acetylated peptide FIK(ac)IDGK” value (SEQ ID NO: 660, 40S ribosomal protein S4 X isoform [71], RPS4X) was 0.57 log 2, the “L/H ratio of acetylated peptide LAMVK(ac)AEPDVK” value (SEQ ID NO: 661, NADH dehydrogenase [ubiquinone] 1 alpha subcomplex subunit 5 [60], NDUFA5) was 0.58 log 2 and the “L/H ratio of acetylated peptide NEK(ac)LFYR” value (SEQ ID NO: 662, NADP-dependent malic enzyme mitochondrial [119], ME3) was 0.58 log 2. For the same compound, the “L/H ratio of acetylated peptide K(ac)FVCPECSK” value (SEQ ID NO: 663, Isoform 1 of Transcription factor Sp3 [680], SP3) was 0.58 log 2, the “L/H ratio of acetylated peptide DLSLDDFK(ac)GK” value (SEQ ID NO: 664, Thioredoxin-dependent peroxide reductase mitochondrial [91], PRDX3) was 0.58 log 2 and the “L/H ratio of acetylated peptide DLTDYLMK(ac)ILTER” value (SEQ ID NO: 665, Beta-actin-like protein 2 [192], ACTBL2) was 0.58 log 2. The “L/H ratio of acetylated peptide HGASPELQK(ac)QIR” value (SEQ ID NO: 666, Peroxisomal membrane protein 11B [43], PEX11B) was 0.58 log 2, the “L/H ratio of acetylated peptide LNQLK(ac)PGLQYK” value (SEQ ID NO: 667, Isoform 5 of Interleukin enhancer-binding factor 3 [413], ILF3) was 0.59 log 2 and the “L/H ratio of acetylated peptide ISK(ac)LYGDLK” value (SEQ ID NO: 668, cDNA FLJ61478 highly similar to Succinate dehydrogenase (ubiquinone) flavoprotein subunit mitochondrial [541], SDHA) was 0.59 log 2. For the same compound, the “L/H ratio of acetylated peptide LTSDDVK(ac)EQIYK” value (SEQ ID NO: 669, 40S ribosomal protein S13 [34], RPS13) was 0.60 log 2, the “L/H ratio of acetylated peptide SCNCLLLK(ac)[…]” value (SEQ ID NO: 670, Isoform alpha-enolase of Alpha-enolase [343], ENO1) was 0.60 log 2 and the “L/H ratio of acetylated peptide […](ac)FLIK” value (SEQ ID NO: 671, Methyltransferase-like protein 7A [105], METTL7A) was 0.60 log 2. For the same compound, the “L/H ratio of acetylated peptide […](ac)QLK” value (SEQ ID NO: 672, Annexin A6 [442], ANXA6) was 0.60 log 2, the “L/H ratio of acetylated peptide EVK(ac)LLLLGAGESGK” value (SEQ ID NO: 673, Guanine nucleotide-binding protein G(k) subunit alpha [35], GNAI3) was 0.60 log 2 and the “L/H ratio of acetylated peptide […](ac)LR” value (SEQ ID NO: 674, Isoform 1 of Vesicle-associated membrane protein-associated protein A [125], VAPA) was 0.60 log 2. For the same compound, the “L/H ratio of acetylated peptide YNWSAK(ac)AK” value (SEQ ID NO: 675, 60S ribosomal protein L37 [52], RPL37) was 0.60 log 2, the “L/H ratio of acetylated peptide GNK(ac)PWISLPR” value (SEQ ID NO: 676, 40S ribosomal protein S4 X isoform [233], RPS4X) was 0.60 log 2 and the “L/H ratio of acetylated peptide […](ac)NK” value (SEQ ID NO: 677, Isoform Long of ES1 protein homolog mitochondrial [233], C21orf33) was 0.61 log 2. The “L/H ratio of acetylated peptide LENDK(ac)SFR” value (SEQ ID NO: 678, Isoform 1 of Enoyl-CoA delta isomerase 1 mitochondrial [89], ECI1) was 0.61 log 2, the “L/H ratio of acetylated peptide LVAMK(ac)FLR” value (SEQ ID NO: 679, Isoform 1 of Nucleoside diphosphate kinase B [39], NME1, NME2, NME1-NME2) was 0.61 log 2 and the “L/H ratio of acetylated peptide KVPFGK(ac)TYCCDLK” value (SEQ ID NO: 680, Mitochondrial carrier homolog 2 [293], MTCH2) was 0.62 log 2. The “L/H ratio of acetylated peptide TK(ac)[…]” value (SEQ ID NO: 681, Isoform 1 of Structural maintenance of chromosomes protein 2 [1160], SMC2) was 0.62 log 2, the “L/H ratio of acetylated peptide LAQLEEAK(ac)[…]” value (SEQ ID NO: 682, ATP synthase subunit b mitochondrial [139], ATP5F1) was 0.63 log 2 and the “L/H ratio of acetylated peptide IPVPVQK(ac)NIDQQIK” value (SEQ ID NO: 683, Isoform 1 of Pre-mRNA-splicing factor 38B [227], PRPF38B) was 0.64 log 2. The “L/H ratio of acetylated peptide […](ac)K” value (SEQ ID NO: 684, Protein disulfide-isomerase [207], P4HB) was 0.64 log 2, the “L/H ratio of acetylated peptide VDIRPQLLK(ac)NALQR” value (SEQ ID NO: 685, Isoform 1 of Heterochromatin protein 1-binding protein 3 [302], HP1BP3) was 0.64 log 2 and the “L/H ratio of acetylated peptide NQK(ac)LTATTQK” value (SEQ ID NO: 686, Nucleoprotein TPR [748], TPR) was 0.64 log 2. The “L/H ratio of acetylated peptide YYK(ac)NIGLGFK” value (SEQ ID NO: 687, 40S ribosomal protein S11 [38], RPS11) was 0.65 log 2, the “L/H ratio of acetylated peptide SGK(ac)YDLDFK” value (SEQ ID NO: 688, Isoform alpha-enolase of Alpha-enolase [256], ENO1) was 0.65 log 2 and the “L/H ratio of acetylated peptide LYGDLK(ac)HLK” value (SEQ ID NO: 689, cDNA FLJ61478 highly similar to Succinate dehydrogenase (ubiquinone) flavoprotein subunit mitochondrial [547], SDHA) was 0.65 log 2. For the same compound, the “L/H ratio of acetylated peptide VENEAEK(ac)DLQCHAPVR” value (SEQ ID NO: 690, Isoform 1 of Bromodomain-containing protein 7 [103], BRD7) was 0.65 log 2, the “L/H ratio of acetylated peptide DSLYK(ac)[…]” value (SEQ ID NO: 691, Isoform 1 of Clathrin heavy chain 1 [1535], CLTC) was 0.65 log 2 and the “L/H ratio of acetylated peptide TISAK(ac)YAEER” value (SEQ ID NO: 692, Isoform 1 of Myosin-9 [1459], MYH9) was 0.65 log 2. For the same compound, the “L/H ratio of acetylated peptide (ac)ASNK(ac)TTLQK” value (SEQ ID NO: 693, Chromobox protein homolog 3 [5], CBX3) was 0.66 log 2, the “L/H ratio of acetylated peptide GYLADPAK(ac)FPEAR” value (SEQ ID NO: 694, 39S ribosomal protein L15 mitochondrial [228], MRPL15) was 0.66 log 2 and the “L/H ratio of acetylated peptide SCEIK(ac)FLTFK” value (SEQ ID NO: 695, Isoform 2 of 39S ribosomal protein L39 mitochondrial [126], MRPL39) was 0.66 log 2.
